Data on 16 compounds can be found in PubChem BioAssay (NCI).

Among the test systems are 786-0 renal; CCRF-CEM leukemia; M14 melanoma; NCI-H226 lung; NCI-H23 lung; SW-620 colon; UO-31 renal; MDA-N; PC-3 prostate; UACC-257 melanoma; T-47D breast.
Assay in all cases: DTP human tumour cell line panel, 48 h

Molecules are shown by their SMILES.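 Assay format: 96-well plates, 48-hour exposure. TGI denotes the concentration required for complete inhibition of growth.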

Turning to `C/C=C(/I)CBr`, the TGI worked out at 30.8 µM in the experiment with 786-0 renal; 23.4 µM in the experiment with CCRF-CEM leukemia; 28.7 µM in the experiment with M14 melanoma; 38.5 µM with NCI-H226 lung; 31.4 µM in the experiment with NCI-H23 lung; 36.6 µM in the experiment on SW-620 colon. Also, the TGI in the experiment on UO-31 renal worked out at 34 µM.

For the compound `[N-]=[N+]=NC(c1cn(C2CC(O)C(CO)O2)c(=O)[nH]c1=O)C(Br)Br` (stereo not drawn), the TGI in the experiment on 786-0 renal, in the experiment with CCRF-CEM leukemia, with M14 melanoma, in the experiment on NCI-H226 lung, in the experiment on NCI-H23 lung and with SW-620 colon was more than 100 µM in each case. The compound further registered a TGI in the experiment with UO-31 renal of more than 100 µM.

In the case of `O=C(/C=C/c1ccccc1)CSc1ncn[nH]1`, the total growth inhibition concentration (TGI) in the experiment with 786-0 renal, in the experiment with CCRF-CEM leukemia, in the experiment with M14 melanoma, in the experiment on MDA-N, in the experiment with NCI-H226 lung and in the experiment with NCI-H23 lung was more than 100 µM throughout. For the same compound, the TGI in the experiment on PC-3 prostate, in the experiment with SW-620 colon, with UACC-257 melanoma and in the experiment with UO-31 renal was more than 100 µM throughout.

In the case of `CCOc1ccc2[nH]c3c(C)c4ccncc4c(C)c3c2c1`, the TGI in the experiment on 786-0 renal was 2.2 µM; in the experiment with CCRF-CEM leukemia, more than 100 µM; in the experiment with M14 melanoma, 2.9 µM; in the experiment with NCI-H226 lung it was 4.24 µM; in the experiment on NCI-H23 lung, 3.01 µM; in the experiment with SW-620 colon it was 1.75 µM. Moreover, the TGI is 3.24 µM in the experiment with UACC-257 melanoma and 13.9 µM in the experiment with UO-31 renal.

For `Brc1ccc(C[P+]2(c3ccccc3)CCCCC2)cc1`, the total growth inhibition concentration (TGI) in the experiment on 786-0 renal, in the experiment on CCRF-CEM leukemia, in the experiment with M14 melanoma, in the experiment on NCI-H226 lung, in the experiment on NCI-H23 lung and with SW-620 colon was more than 100 µM throughout. In addition, the figures for the TGI in the experiment with UACC-257 melanoma and in the experiment with UO-31 renal were 73.8 µM and more than 100 µM, respectively.

As for `COC(=O)CCC1=C(CC(=O)OC)C(C)(OC)N=C1NC(=O)OCc1ccccc1` (stereo not drawn), the TGI with 786-0 renal, in the experiment on CCRF-CEM leukemia, in the experiment with M14 melanoma, in the experiment with NCI-H226 lung, in the experiment on NCI-H23 lung and with PC-3 prostate was more than 100 µM throughout. The TGI in the experiment with SW-620 colon, in the experiment with T-47D breast, in the experiment on UACC-257 melanoma and with UO-31 renal was more than 100 µM each time.

For `COc1ccc(C(=O)O[C@H]2[C@@H]3C=CO[C@@H](OC4OC(CO)C(O)C(O)C4O)[C@@H]3[C@@]3(CO)O[C@@H]23)cc1O` (stereo partly drawn), the TGI in the experiment on 786-0 renal, in the experiment on CCRF-CEM leukemia, with M14 melanoma, with NCI-H23 lung, with SW-620 colon and in the experiment with UACC-257 melanoma was more than 100 µM throughout. Moreover, in the experiment with UO-31 renal, the TGI is more than 100 µM.

`NC(=S)/N=C(/c1nc2ccc(Cl)cc2[nH]c1=O)C(O)c1ccccc1Cl` (stereo not drawn): the TGI with 786-0 renal, with CCRF-CEM leukemia, in the experiment on M14 melanoma, in the experiment with NCI-H226 lung, in the experiment on NCI-H23 lung and with SW-620 colon was more than 100 µM in each case. For the same compound, the TGI in the experiment on UACC-257 melanoma and in the experiment on UO-31 renal was more than 100 µM throughout.

As for `COc1cc(C(C)O)c(S(=O)(=O)CC(C)O)nn1` (stereo not drawn), the TGI in the experiment with CCRF-CEM leukemia, in the experiment with M14 melanoma, in the experiment on MDA-N, in the experiment on NCI-H226 lung, in the experiment with NCI-H23 lung and with SW-620 colon was more than 100 µM throughout. Besides, the TGI in the experiment on UACC-257 melanoma and in the experiment on UO-31 renal was more than 100 µM throughout.

For `CN(C(=O)C12C3C4C5C3C1(C(=O)C13C6C7C8C6C1C8C73)C5C42)C(C)(C)C` (stereo not drawn), the TGI in the experiment with 786-0 renal was more than 50 µM; with CCRF-CEM leukemia, more than 37.9 µM; in the experiment on M14 melanoma, more than 50 µM; in the experiment with NCI-H226 lung, more than 50 µM; with NCI-H23 lung it was more than 50 µM; with SW-620 colon it was more than 34 µM. Besides, the TGI with UACC-257 melanoma and with UO-31 renal was more than 50 µM each time.

As to `O=CNNC(=O)Nc1cccc2ccccc12`, the TGI with 786-0 renal, in the experiment on CCRF-CEM leukemia, with M14 melanoma, with NCI-H226 lung, in the experiment with NCI-H23 lung and in the experiment with SW-620 colon was more than 100 µM in each case. Also, the TGI with T-47D breast, in the experiment on UACC-257 melanoma and in the experiment on UO-31 renal was more than 100 µM each time.

Turning to `COc1ccc(N=NC(C(=O)c2ccccc2)C(=O)c2ccccc2)cc1`, the TGI is 61 µM in the experiment with 786-0 renal; 58.2 µM in the experiment on CCRF-CEM leukemia; 33.4 µM in the experiment with M14 melanoma; 29.9 µM in the experiment with NCI-H226 lung; 65.3 µM with NCI-H23 lung; more than 100 µM in the experiment with SW-620 colon. The concentration for total growth inhibition (TGI) in the experiment on UACC-257 melanoma was more than 100 µM; with UO-31 renal, 51.7 µM.

As to `COC(=O)/C=C(C)/C=C/C1OC(C)OCC1O` (stereo not drawn), the TGI with 786-0 renal, in the experiment with CCRF-CEM leukemia, in the experiment with M14 melanoma, in the experiment on NCI-H226 lung, in the experiment with NCI-H23 lung and in the experiment on SW-620 colon was more than 100 µM throughout. Also, the TGI in the experiment with UACC-257 melanoma and with UO-31 renal was more than 100 µM throughout.

Consider `Cc1c2ccncc2cc2c1[nH]c1ccccc12`, for which the TGI was 15 µM with CCRF-CEM leukemia; 16.2 µM with NCI-H226 lung; 15.9 µM in the experiment on NCI-H23 lung; 4.68 µM with SW-620 colon; 13.5 µM with UACC-257 melanoma; 9.89 µM in the experiment with UO-31 renal.

As for `CCOC(=O)C(=O)Nc1ccccc1C`, the TGI with 786-0 renal, with CCRF-CEM leukemia, in the experiment on M14 melanoma, with NCI-H226 lung, in the experiment with NCI-H23 lung and in the experiment with SW-620 colon was more than 100 µM throughout. The compound further returned a TGI in the experiment with UO-31 renal of more than 100 µM.

With `CS(=O)(=O)c1nc(-c2cc3c(c(S(C)(=O)=O)n2)CCCC3)cc2c1CCCCC2`, the TGI in the experiment on 786-0 renal, with CCRF-CEM leukemia, in the experiment on M14 melanoma, in the experiment with MDA-N, in the experiment on NCI-H226 lung and in the experiment on NCI-H23 lung was more than 100 µM throughout. Besides, the TGI in the experiment with PC-3 prostate, in the experiment on SW-620 colon and in the experiment with UACC-257 melanoma was more than 100 µM each time.
